# According to patent publication US5627271A, “Glycolipids, their preparation and use” (Genzyme Limited, priority 1992, dated 1997):
# Several values for one entry are separate records, joined by “and”; a condition that tells them apart may be missing. Equal entries are not always repeated.
# Key:
# [1] = target: T1, α2-3 sialyltransferase (Sus scrofa, UniProt Q02745); assay: Incorporation of radio-labelled CMP-NANA into glycolipid acceptors by α2-3 sialyltransferase; type: biochemical, porcine
# T1 construct: from porcine liver; from tissue; host or cells: porcine liver
# T1 sequence (Q02745 1-343): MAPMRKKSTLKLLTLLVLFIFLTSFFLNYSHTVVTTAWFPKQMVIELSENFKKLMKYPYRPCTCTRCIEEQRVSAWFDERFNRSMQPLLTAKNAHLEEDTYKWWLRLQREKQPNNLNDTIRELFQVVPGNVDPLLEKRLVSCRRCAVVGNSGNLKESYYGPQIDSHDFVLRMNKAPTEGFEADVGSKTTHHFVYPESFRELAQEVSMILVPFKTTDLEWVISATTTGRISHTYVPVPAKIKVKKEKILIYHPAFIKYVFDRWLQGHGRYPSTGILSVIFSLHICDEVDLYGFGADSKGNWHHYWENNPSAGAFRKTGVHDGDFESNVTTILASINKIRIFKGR
# Experimental: (§1) Various glycolipids have been incubated with α2-3 and α2-6 sialyltransferases (from porcine and rat liver) in the presence of radio-labelled CMP-NANA. […] Other glycolipids could accept NANA, but in relatively low yields.
# However, this transferase should be able to use glycolipid (54) as an acceptor.
# [2] = target: T2, α2-6 sialyltransferase (Rattus norvegicus, UniProt P13721); assay: Incorporation of radio-labelled CMP-NANA into glycolipid acceptors by α2-6 sialyltransferase; type: biochemical
# T2 construct: (from porcine and rat liver); from tissue; host or cells: rat liver
# T2 sequence (P13721 1-403): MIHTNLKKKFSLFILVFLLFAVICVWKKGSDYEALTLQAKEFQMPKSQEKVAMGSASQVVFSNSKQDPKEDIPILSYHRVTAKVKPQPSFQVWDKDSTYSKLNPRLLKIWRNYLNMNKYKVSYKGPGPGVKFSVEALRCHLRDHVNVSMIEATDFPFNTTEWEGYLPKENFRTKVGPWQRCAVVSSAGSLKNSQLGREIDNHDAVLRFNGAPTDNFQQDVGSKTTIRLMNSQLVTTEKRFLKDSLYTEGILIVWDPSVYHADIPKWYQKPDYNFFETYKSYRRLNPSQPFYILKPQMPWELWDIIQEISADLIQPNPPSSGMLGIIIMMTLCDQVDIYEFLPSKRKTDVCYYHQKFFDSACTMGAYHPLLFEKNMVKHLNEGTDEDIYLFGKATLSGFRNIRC
# Experimental: as §1
# [3] = test system: galactosyltransferase; assay: Test as substrate for galactosyltransferase; type: biochemical, bovine; settings: with and without the detergent Triton CF-54
# Experimental: Compound (28): The acceptor (27) (16.5 mg, 31.2 μmol) was sonicated carefully for 15 min in 39 μl of 40 mM MnCl2, 93 μl of 50 mM NaN3, 102 μl and 330 μl of sodium cacodylate buffer pH 7.4 100 mM and 50 mM respectively. Then 35 μl of 2% BSA, 5.5 μl (5.5 U) of 1 U/μl calf intestinal alkaline phosphatase, 143 μl (1.92 U) of 6.7 U/500 μl UDP-Glc 4--epimerase, 29 μl (487 mU) of 8.4 U/500 μl galactosyl-transferase and 21.9 mg (37.9 μmol, 1.2 eq.) of UDP-Glc were added. The final concentrations were as follows: [Acceptor]=40 mM, [UDP-Glc]=49 mM, [MnCl2 ]=2 mM, [NAN3 ]=6 mM, [Sodium cacodylate]=50 mM.
# The GlcNAc ceramide (40) has been tested as a substrate for the galactosyltransferase with and without the addition of the detergent Triton CF-54. No conversion was obtained.
# [4] = target: T3, α1-3 fucosyl transferase VI (Homo sapiens, UniProt P51993); assay: Test as substrate for α1-3 fucosyl transferase VI with radio-labelled GDP-[14C]fucose; type: biochemical; settings: for Competition for incorporation of fucose into lipid (acceptor quality): 0.2 mM (28) with 0 to 2 mM N-acetyllactosamine; for Percentage of fucose transferred: 0.5 mU fucosyl transferase, 1 hour
# T3 sequence (P51993 1-359): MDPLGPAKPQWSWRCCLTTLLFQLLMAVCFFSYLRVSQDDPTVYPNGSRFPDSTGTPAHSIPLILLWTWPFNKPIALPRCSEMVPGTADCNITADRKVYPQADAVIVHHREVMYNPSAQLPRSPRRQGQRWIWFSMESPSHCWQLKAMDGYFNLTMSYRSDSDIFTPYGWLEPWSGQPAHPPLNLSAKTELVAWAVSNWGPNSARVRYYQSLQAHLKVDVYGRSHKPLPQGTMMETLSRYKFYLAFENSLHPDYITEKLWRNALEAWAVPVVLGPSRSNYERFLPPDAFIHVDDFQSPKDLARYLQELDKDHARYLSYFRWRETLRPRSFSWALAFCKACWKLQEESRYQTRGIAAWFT
# Experimental: The acceptor (28) was tested as a substrate for α1-3 fucosyl transferase VI, by incubation with the enzyme and radio-labelled GDP-[^14 C]fucose. The reaction conditions were: 45 mM Mes pH 6.5; 27 μM GDP-Fuc; 0.1% BSA; 0.1 mM NaCl; 5 mM MnCl2; 5 mM MgCl2; incubation at 37° C.). The reaction mixture was passed through a Sep-Pak C18 cartridge which was washed with 0.2M NaCl to ensure separation of all hydrophilic material. The lipid fraction was then eluted with MeOH. The incorporation of radioactivity into lipids was measured by scintillation counting.
# In a first experiment, the transfer was monitored with time, using 0.2 mM (28) and 0.1 mU fucosyltransferase/100 μl incubation, and compared to a control incubation containing no acceptor. […] In a further experiment, but using 0.5 mU fucosyl transferase over 1 hour, the transfer of fucose was measured at 0.2, 1, 5 and 24 mM concentrations of (28). The percentage of fucose transferred was respectively about 50%, 60%, 65% and 70%.
# Competition experiments were also carried out, using 0.2 mM acceptor (28), in the presence of various concentrations (0 to 2 mM) of N-acetyllactosamine which is a known substrate for the enzyme. The samples were analysed as before, for incorporation of fucose into lipid.
# [5] = acceptor conc. 12 mM, bracketed numbers are background
compound,measurement,setting,value
CCCCCCCCCCCCC/C=C/[C@@H](O)[C@@H](N)CO[C@@H]1O[C@H](CO)[C@@H](O[C@@H]2O[C@H](CO)[C@H](O)[C@H](O)[C@H]2O)[C@H](O)[C@H]1O [(1)],α2-3ST yield (%) of incorporation of radio-labelled CMP-NANA,[1]; acceptor conc. 12 mM,1.5%
same,α2-3ST yield (%) of incorporation of radio-labelled CMP-NANA,[1]; acceptor conc. 100 mM,2.4% and 2.5%
CCCCCCCCCCCCC/C=C/[C@@H](O)[C@H](CO[C@@H]1O[C@H](CO)[C@@H](O[C@@H]2O[C@H](CO)[C@H](O)[C@H](O)[C@H]2O)[C@H](O)[C@H]1O)N=[N+]=[N-] [(20)],α2-3ST yield (%) of incorporation of radio-labelled CMP-NANA,[1]; acceptor conc. 100 mM,2.5%
same,α2-6 ST yield (%) of incorporation of radio-labelled CMP-NANA,[2]; [5],2.9% and 2.8%
CCCCCCCCCCCCC/C=C/[C@@H](O)[C@H](CO[C@@H]1O[C@H](CO)[C@@H](O)[C@H](O)[C@H]1NC(C)=O)N=[N+]=[N-] [(27)],Conversion (galactosylation) by galactosyltransferase,[3],galactosylated
CCCCCCCCCCCCC/C=C/[C@@H](O)[C@H](CO[C@@H]1O[C@H](CO)[C@@H](O[C@@H]2O[C@H](CO)[C@H](O)[C@H](O)[C@H]2O)[C@H](O)[C@H]1NC(C)=O)N=[N+]=[N-] [(28)],α2-3ST yield (%) of incorporation of radio-labelled CMP-NANA,[1]; acceptor conc. 6 mM,1.1%
same,α2-3ST yield (%) of incorporation of radio-labelled CMP-NANA,[1]; acceptor conc. 100 mM,1.5% and 1.2%
same,Competition for incorporation of fucose into lipid (acceptor quality),[4],similarly good acceptors
same,Incorporation of label into lipid monitored with time,"[4]; 0.2 mM acceptor, 0.1 mU fucosyltransferase/100 μl, vs control without acceptor",incorporation of label into lipid above background
same,Percentage of fucose transferred,[4]; 0.2 mM acceptor,about 50%
same,Percentage of fucose transferred,[4]; 1 mM acceptor,~60%
same,Percentage of fucose transferred,[4]; 5 mM acceptor,~65%
same,Percentage of fucose transferred,[4]; 24 mM acceptor,~70%
same,α2-6 ST yield (%) of incorporation of radio-labelled CMP-NANA,"[2]; acceptor conc. 6 mM, bracketed numbers are background",22.2%
same,α2-6 ST yield (%) of incorporation of radio-labelled CMP-NANA,[2]; [5],23.2%
same,α2-6 ST yield (%) of incorporation of radio-labelled CMP-NANA,"[2]; acceptor conc. 50 mM, bracketed numbers are background",47.0%
same,α2-6 ST yield (%) of incorporation of radio-labelled CMP-NANA,"[2]; acceptor conc. 100 mM, bracketed numbers are background",59.8%
"CCCCCCCCCCCCC/C=C/[C@@H](O)[C@H](CO[C@@H]1O[C@H](CO)[C@@H](O)[C@H](O)[C@H]1NC(C)=O)NC(=O)CCCCCCCCCCCCCCCCCCCCCCC [(40), GlcNAc ceramide]",Conversion (galactosylation) by galactosyltransferase,[3],No conversion
"CC(=O)N[C@H]1C(O)O[C@H](CO)[C@@H](O[C@@H]2O[C@H](CO)[C@H](O)[C@H](O)[C@H]2O)[C@@H]1O (stereo partly drawn) [N-acetyllactosamine, reference compound]",Competition for incorporation of fucose into lipid (acceptor quality),[4],similarly good acceptors
"CCCCCCCCCCCCC/C=C/[C@@H](O)[C@H](CO[C@@H]1O[C@H](CO)[C@@H](O[C@@H]2O[C@H](CO)[C@H](O)[C@H](O)[C@H]2O)[C@H](O)[C@H]1O)NC(=O)CCCCCCCCCCCCCCCCC [lactosyl-ceramide, Lactosylceramide, reference compound]",Transfer by α2-3 sialyltransferase / acceptor substrate (in words),[1]; α2-3 sialyltransferase from porcine liver,not an acceptor substrate
same,α2-6 ST yield (%) of incorporation of radio-labelled CMP-NANA,[2]; acceptor conc. 43 mM,2.7%
